Data reported in publication PMC7731314, “Tropinone-Derived Alkaloids as Potent Anticancer Agents: Synthesis, Tyrosinase Inhibition, Mechanism of Action, DFT Calculation, and Molecular Docking Studies” (International Journal of Molecular Sciences, 2020).
Read-outs that look alike come from different tables or passages of the source.

Tests used:
[1] = tested on: A549 cells; format: cell-based, human
Experimental: The RPMI 8226 or A549 cells were seeded in 6-well plates in medium containing 10% FBS without or with compound 3a (2.5, 5, 10, 20, or 40 µM). After 24-h and 48-h treatment, the cell cycle analysis was performed by determination of the DNA contents on the basis of PI staining as described previously. Briefly, the cells were harvested, washed with PBS, and fixed overnight with 80% ethanol at −20 °C. After that, the cells were washed with PBS and stained with PI using PI/RNase Staining Buffer (BD Biosciences, BD Pharmingen™, USA) for 30 min in darkness at RT. Next, the stained cells were analyzed using FACS Calibur. The intensity of PI fluorescence of individual nuclei was determined and at least 10 000 events were measured within an acquisition rate >60 events/s. The FACS data were analyzed using Cell Quest Pro Version 6.0 (BD Biosciences, San Jose, CA, USA). for the Macintosh operating system. The data were analyzed to determine the percentage of cells at the sub-G1 phase (apoptotic cells) and each phase of the cell cycle (G1, S, and G2/M).

[2] = tested on: human breast adenocarcinoma (MDA-MB-231) cell line; assay: MTT cell proliferation assay, MDA-MB-231; format: cell-based; details: MDA-MB-231, antiproliferative, MTT, 72 h, read-out: IC50 ± SD MDA-MB-231
Source text: (§1) The influence of the tested compounds on the proliferation of melanoma B16F10 and breast MDA-MB-231 cells was estimated with the MTT assay as described previously. The cells counted using an automated cell counter (Countess® II FL, Invitrogen by Thermo Fisher Scientific Inc., Waltham, MA USA) and plated in 96-well plates (Nunc Edge 2F, Thermo Fisher Scientific Inc.) at a density of 0.1 × 10^4 and 0.2 × 10^4 per well, respectively. A total of twenty-four hours later, drugs were applied with final concentration: 5, 0.5, 0.05, and 0.005 μg/mL, and after an additional seventy-two hours MTT staining was performed as follows: twenty microliters of 5 mg/mL MTT solution and was added to each well of 96-well plate incubated for 2 h. Subsequently, the medium was removed and crystals of formazan were solubilized in pure isopropanol. Absorbance readout was conducted immediately using plate reader Multiskan Spectrum at 570 nm (Thermo Electron Corporation, Waltham, MA, USA). The background optical density was measured in the wells filled with culture medium, without the cells. The biological evaluation was performed as three independent experiments. The IC50 values were calculated using ED50plus v 1.0 freeware software and the mean response and standard deviation were calculated using Excel software. All of the chemicals were obtained from Sigma-Aldrich.

[3] = tested on: human multiple myeloma (RPMI 8226) cell line; assay: MTT cell proliferation assay, RPMI 8226; format: cell-based; details: antiproliferative, 96 h, read-out: IC50 ± SD RPMI 8226
Experimental: The influence of the tested compounds on the proliferation of RPMI 8226 and A549 cells was estimated with the MTT assay as described previously. Briefly, 1 × 10^4 cells/mL (RPMI 8226) or 0.2 × 10^4 (A549) cells per well were seeded into 96-well plates and cultured (in growth medium containing 10% FBS) with different concentrations of each compound ranging from 3.125 to 100 μM. The control cells were treated with the vehicle DMSO (0.1%).

[4] = tested on: mouse skin melanoma (B16-F10) cell line; assay: MTT cell proliferation assay, B16-F10; format: cell-based; details: B16-F10, antiproliferative, MTT, 72 h, read-out: IC50 ± SD B16-F10
Source text: as §1

[5] = tested on: RPMI 8226 cells; assay: Annexin V-FITC/PI cell death by flow cytometry, RPMI 8226; format: cell-based, human; details: for IC50: Homo sapiens, read-out: IC50 for apoptosis (concentration inducing apoptosis in 50% of cells)
Experimental: The quantitative analysis of compound 3a-induced cell death was performed using an Annexin V-fluorescein isothiocyanate (FITC)/propidium iodide (PI) apoptosis kit (BD Biosciences, BD Pharmingen™, San Jose, CA, USA) as previously described. Briefly, the RPMI 8226 or A549 cells growing on the 6-well plates in the culture medium with 2% FBS were subjected to increasing concentrations of compound 3a (2.5, 5, 10, 20, or 40 μM) for 24 and 48 h. After the treatment, the cells were harvested, centrifuged at 1000 rpm and room temperature (RT) for 5 min, washed twice with PBS, and stained with […] of AnnexinV-FITC and […] of PI. After incubation for 15 min in the dark at room temperature, the cells were immediately analyzed using FACS Calibur. The intensity of fluorescence of AnnexinV-FITC and PI stained cells was determined by acquisition of at least 10,000 events per sample within the rate >60 events/s. The FACS data were analyzed using Cell Quest Pro Version 6.0. for the Macintosh operating system. The data were analyzed to determine the percentage of viable, early apoptotic, late apoptotic, and necrotic cells.

CN1C2CCC1CC(=NNc1nc(-c3ccc(I)cc3)cs1)C2 [Compound 3a, 4-(4-Iodophenyl)-2-(2-(8-methyl-8-azabicyclo[3.2.1]octan-3-ylidene)hydrazinyl)thiazole]
Cell cycle distribution G0/G1 ([1]; A549, 2.5 µM, 24 h): 64.49±1.89 % of cells
Cell cycle distribution G2/M ([1]; A549, 2.5 µM, 24 h): 14.68±2.11 % of cells
Cell cycle distribution S ([1]; A549, 2.5 µM, 24 h): 12.39±2.34 % of cells
Cell cycle distribution sub-G1 ([1]; A549, 2.5 µM, 24 h): 8.81±3.73 % of cells
Cell cycle distribution G0/G1 ([1]; A549, 2.5 µM, 48 h): 73.22±1.97 % of cells
Cell cycle distribution G2/M ([1]; A549, 2.5 µM, 48 h): 8.91±2.22 % of cells
Cell cycle distribution S ([1]; A549, 2.5 µM, 48 h): 6.07±1.54 % of cells
Cell cycle distribution sub-G1 ([1]; A549, 2.5 µM, 48 h): 11.98±3.62 % of cells
Cell cycle distribution G0/G1 ([1]; A549, 5 µM, 24 h): 65.90±2.36 % of cells
Cell cycle distribution G2/M ([1]; A549, 5 µM, 24 h): 13.62±2.25 % of cells
Cell cycle distribution S ([1]; A549, 5 µM, 24 h): 12.18±2.45 % of cells
Cell cycle distribution sub-G1 ([1]; A549, 5 µM, 24 h): 8.94±3.39 % of cells
Cell cycle distribution G0/G1 ([1]; A549, 5 µM, 48 h): 68.55±8.03 % of cells
Cell cycle distribution G2/M ([1]; A549, 5 µM, 48 h): 9.05±1.72 % of cells
Cell cycle distribution S ([1]; A549, 5 µM, 48 h): 6.81±2.66 % of cells
Cell cycle distribution sub-G1 ([1]; A549, 5 µM, 48 h): 15.74±6.03 % of cells
Cell cycle distribution G0/G1 ([1]; A549, 10 µM, 24 h): 66.51±4.46 % of cells
Cell cycle distribution G2/M ([1]; A549, 10 µM, 24 h): 11.43±2.88 % of cells
Cell cycle distribution S ([1]; A549, 10 µM, 24 h): 9.82±2.73 % of cells
Cell cycle distribution sub-G1 ([1]; A549, 10 µM, 24 h): 13.23±7.01 % of cells
Cell cycle distribution G0/G1 ([1]; A549, 10 µM, 48 h): 68.54±6.87 % of cells
Cell cycle distribution G2/M ([1]; A549, 10 µM, 48 h): 8.44±1.47 % of cells
Cell cycle distribution S ([1]; A549, 10 µM, 48 h): 7.07±2.63 % of cells
Cell cycle distribution sub-G1 ([1]; A549, 10 µM, 48 h): 16.15±6.33 % of cells
Cell cycle distribution G0/G1 ([1]; A549, 20 µM, 24 h): 66.45±9.20 % of cells
Cell cycle distribution G2/M ([1]; A549, 20 µM, 24 h): 7.16±2.15 % of cells
Cell cycle distribution S ([1]; A549, 20 µM, 24 h): 5.23±2.38 % of cells
Cell cycle distribution sub-G1 ([1]; A549, 20 µM, 24 h): 22.36±12.24 % of cells
Cell cycle distribution G0/G1 ([1]; A549, 20 µM, 48 h): 63.07±6.59 % of cells
Cell cycle distribution G2/M ([1]; A549, 20 µM, 48 h): 5.19±0.93 % of cells
Cell cycle distribution S ([1]; A549, 20 µM, 48 h): 4.61±1.21 % of cells
Cell cycle distribution sub-G1 ([1]; A549, 20 µM, 48 h): 27.32±6.78 % of cells
Cell cycle distribution G0/G1 ([1]; A549, 40 µM, 24 h): 41.03±2.93 % of cells
Cell cycle distribution G2/M ([1]; A549, 40 µM, 24 h): 12.87±5.29 % of cells
Cell cycle distribution S ([1]; A549, 40 µM, 24 h): 11.34±0.58 % of cells
Cell cycle distribution sub-G1 ([1]; A549, 40 µM, 24 h): 35.46±9.33 % of cells
Cell cycle distribution G0/G1 ([1]; A549, 40 µM, 48 h): 16.49±3.46 % of cells
Cell cycle distribution G2/M ([1]; A549, 40 µM, 48 h): 2.19±0.38 % of cells
Cell cycle distribution S ([1]; A549, 40 µM, 48 h): 6.05±0.87 % of cells
Cell cycle distribution sub-G1 ([1]; A549, 40 µM, 48 h): 75.27±4.12 % of cells
IC50 [2]: 2.26 ± 0.38 µM
IC50 [3]: 9.32 ± 0.71 µM
IC50 [4]: 1.51 ± 0.14 µM
IC50 ([5]; RPMI 8226, 24 h): 14.6 µM
IC50 ([5]; RPMI 8226, 48 h): 7.91 µM
Apoptosis (early + late) ([5]; RPMI 8226, 2.5 µM, 24 hours): 19.53 ± 2.64 % of cells ± SD
Necrosis ([5]; RPMI 8226, 2.5 µM, 24 hours): 3.62 ± 0.87 % of cells ± SD
Apoptosis (early + late) ([5]; RPMI 8226, 2.5 µM, 48 hours): 20.93 ± 1.83 % of cells ± SD
Necrosis ([5]; RPMI 8226, 2.5 µM, 48 hours): 5.54 ± 0.44 % of cells ± SD
Apoptosis (early + late) ([5]; RPMI 8226, 5 µM, 24 hours): 22.23 ± 6.01 % of cells ± SD
Necrosis ([5]; RPMI 8226, 5 µM, 24 hours): 6.35 ± 2.57 % of cells ± SD
Apoptosis (early + late) ([5]; RPMI 8226, 5 µM, 48 hours): 31.71 ± 11.36 % of cells ± SD
Necrosis ([5]; RPMI 8226, 5 µM, 48 hours): 7.53 ± 2.61 % of cells ± SD
Apoptosis (early + late) ([5]; RPMI 8226, 10 µM, 24 hours): 39.58 ± 9.33 % of cells ± SD
Necrosis ([5]; RPMI 8226, 10 µM, 24 hours): 9.94 ± 2.73 % of cells ± SD
Apoptosis (early + late) ([5]; RPMI 8226, 10 µM, 48 hours): 58.25 ± 21.57 % of cells ± SD
Necrosis ([5]; RPMI 8226, 10 µM, 48 hours): 11.08 ± 5.38 % of cells ± SD
Apoptosis (early + late) ([5]; RPMI 8226, 20 µM, 24 hours): 60.41 ± 0.99 % of cells ± SD
Necrosis ([5]; RPMI 8226, 20 µM, 24 hours): 18.5 ± 2.38 % of cells ± SD
Apoptosis (early + late) ([5]; RPMI 8226, 20 µM, 48 hours): 76.93 ± 14.34 % of cells ± SD
Necrosis ([5]; RPMI 8226, 20 µM, 48 hours): 20.18 ± 11.99 % of cells ± SD
